Drawing on patent US12129237B2, “Substituted diaminocarboxamide and diaminocarbonitrile pyrimidines, compositions thereof, and methods of treatment therewith” (SIGNAL PHARMACEUTICALS, LLC, priority 2011, dated 2024), this text covers IC50 for 36 compounds.

Molecules are shown by their SMILES. Where two headings read alike, the source gives them in different places.

For this test, the target named is T1, JNK1 (Homo sapiens, UniProt P45983).
T1 construct: purchased Carna Biosciences
Put plainly: JNK1 biochemical assays (one or more of: time resolved fluorescence, Z'-LYTE Cascade, radioactive).

Where [1] appears, read: Table 3, JNK1 IC50 activity level, read-out: Act. Level.
Setting [2] is: one or more of the JNK1 biochemical assays, read-out: Act. Level (JNK1 IC50 activity level).
[3] abbreviates: Table 2, JNK1 IC50 activity level, read-out: Act. Level.
Where [4] appears, read: tested in one or more of the JNK1 biochemical assays, read-out: Act. Level (JNK1 biochemical assay IC50 activity level).

T1 sequence (P45983 whole entry): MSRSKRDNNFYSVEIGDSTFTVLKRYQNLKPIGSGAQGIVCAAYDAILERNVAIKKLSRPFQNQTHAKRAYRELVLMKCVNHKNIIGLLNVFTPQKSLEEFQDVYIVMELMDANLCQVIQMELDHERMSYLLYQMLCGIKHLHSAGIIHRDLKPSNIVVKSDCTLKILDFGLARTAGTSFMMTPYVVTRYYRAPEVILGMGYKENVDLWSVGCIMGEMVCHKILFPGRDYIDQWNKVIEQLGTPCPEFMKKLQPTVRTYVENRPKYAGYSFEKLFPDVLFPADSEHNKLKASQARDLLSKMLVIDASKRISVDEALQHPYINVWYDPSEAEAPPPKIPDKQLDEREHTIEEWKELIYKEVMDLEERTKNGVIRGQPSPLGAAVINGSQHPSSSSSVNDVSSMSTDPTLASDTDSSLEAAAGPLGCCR

As to `CCO[C@H]1CC[C@H](Nc2ncc(C#N)c(N[C@@H]3CCCC[C@H](O)C3)n2)CC1` [Example C-29, 2-((1r,4R)-4-ethoxycyclohexylamino)-4-((1R,3S)-3-hydroxycycloheptylamino) pyrimidine-5-carbonitrile], under setting [1], the IC50 was less than 0.2 µM.
Take `CCO[C@H]1CC[C@H](Nc2ncc(C(N)=O)c(N[C@H](C)C3CC3)n2)CC1` [Example 411, 4-((R)-1-cyclopropylethylamino)-2-((1r,4R)-4-ethoxycyclohexylamino)pyrimidine-5-carboxamide]: under setting [2], the IC50 was less than 0.2 µM.
Same read-out and setting: the result for `NC(=O)c1cnc(N[C@H]2CC[C@H](O)CC2)nc1NC1C2CC1C2` (stereo partly drawn) [Example 453, 4-(bicyclo[1.1.1]pentan-2-ylamino)-2-((1r,4r)-4-hydroxycyclohexylamino)pyrimidine-5-carboxamide] reads less than 0.2 µM; that for `NC(=O)c1cnc(N[C@H]2CC[C@H](OC(F)F)CC2)nc1NC1CCC1` [Example 436, 4-(cyclobutylamino)-2-((1r,4r)-4-(difluoromethoxy)cyclohexylamino)pyrimidine-5-carboxamide], less than 0.2 µM.
For the compound `CC1CCC(Nc2ncc(C(N)=O)c(Nc3ccccc3)n2)CC1` (stereo not drawn) [Example B-47, 2-(4-methylcyclohexylamino)-4-(phenylamino)pyrimidine-5-carboxamide], the IC50 under setting [3] was less than 0.2 µM.
In the case of `NC(=O)c1cnc(NC23CCC(F)(CC2)CC3)nc1N[C@@H]1CCC[C@H](O)C1` [Example 267, 2-(4-fluorobicyclo[2.2.2]octan-1-ylamino)-4-((1R,3S)-3-hydroxycyclohexylamino)pyrimidine-5-carboxamide], the IC50 under setting [2] is less than 0.2 µM.
On the same count and under the same terms, in the case of `NC(=O)c1cnc(N[C@H]2CC[C@H](O)CC2)nc1NC1(C2CC2)CC1` [Example 355, 4-(bi(cycloprop)ylamino)-2-((1r,4r)-4-hydroxycyclohexylamino)pyrimidine-5-carboxamide] it was less than 0.2 µM.
Same read-out and setting: the result for `CC(C)Nc1nc(NC2CCOCC2)ncc1C(N)=O` [Example 222, 4-(isopropylamino)-2-(tetrahydro-2H-pyran-4-ylamino)pyrimidine-5-carboxamide] reads 0.2 to 0.8 µM; that for `CC(C)(C)CNc1nc(N[C@H]2CC[C@H](O)CC2)ncc1C(N)=O` [Example 228, 2-((1r,4r)-4-hydroxycyclohexylamino)-4-(neopentylamino)pyrimidine-5-carboxamide], less than 0.2 µM.
For `CNC(=O)[C@H]1CC[C@H](Nc2ncc(C(N)=O)c(NC(C)C)n2)CC1` [Example A-199, 4-(isopropylamino)-2-((1r,4r)-4-(methylcarbamoyl)cyclohexylamino)pyrimidine-5-carboxamide], the IC50 under setting [4] is less than 0.2 µM.
Consider `CCO[C@H]1CC[C@H](Nc2ncc(C(N)=O)c(NC3(CC)CCC3)n2)CC1` [Example 360, 2-((1r,4r)-4-ethoxycyclohexylamino)-4-(1-ethylcyclobutylamino)pyrimidine-5-carboxamide], for which, under setting [2], the IC50 was less than 0.2 µM.
On to `C[C@@H]1CC[C@@H](Nc2nc(N[C@H]3CC[C@H](OCC(F)(F)F)CC3)ncc2C#N)C[C@H]1O` [Example C-49], for which the IC50 under setting [1] was less than 0.2 µM.
In the case of `C[C@@H]1CC[C@@H](Nc2nc(NC34CC(C(F)(F)F)(C3)C4)ncc2C(N)=O)C[C@H]1O` [Example 441, 4-((1R,3R,4R)-3-hydroxy-4-methylcyclohexylamino)-2-(3-(trifluoromethyl)bicyclo[1.1.1]pentan-1-ylamino)pyrimidine-5-carboxamide], the IC50 under setting [2] was less than 0.2 µM.
The same measure, in the same setting: the result for `NC(=O)c1cnc(NC23CCC(O)(CC2)C3)nc1NC1CCC1` [Example 447, 4-(cyclobutylamino)-2-(4-hydroxybicyclo[2.2.1]heptan-1-ylamino)pyrimidine-5-carboxamide] reads less than 0.2 µM.
Turning to `NC(=O)c1cnc(NC2CCC2)nc1N[C@H]1CC[C@@H](C(=O)N2CCCCC2)CC1` [Example A-133, 2-(cyclobutylamino)-4-((1s,4s)-4-(piperidine-1-carbonyl)cyclohexylamino)pyrimidine-5-carboxamide], the IC50 under setting [4] lay within 0.8 to 1 µM.
Turning to `NC(=O)c1cnc(N[C@H]2CCc3cccnc3C2)nc1N[C@@H]1CCC[C@H](O)C1` [Example B-87, 4-((1R,3S)-3-hydroxycyclohexylamino)-2-((S)-5,6,7,8-tetrahydroquinolin-7-ylamino)pyrimidine-5-carboxamide], the IC50 under setting [3] is less than 0.2 µM.
Regarding `NC(=O)c1cnc(NC2CCCC2)nc1N[C@H]1CC[C@@H](O)CC1` [Example A-128, 2-(cyclopentylamino)-4-((1s,4s)-4-hydroxycyclohexylamino)pyrimidine-5-carboxamide], under setting [4], the IC50 was less than 0.2 µM.
As to `NC(=O)c1cnc(NCCc2cccs2)nc1Nc1ccccc1` [Example B-42, 4-(phenylamino)-2-(2-(thiophen-2-yl)ethylamino)pyrimidine-5-carboxamide], under setting [3], the IC50 lay in the range of 0.2 to 0.8 µM.
For `NC(=O)c1cnc(NC2CCOCC2)nc1N[C@@H]1CCC[C@H](O)C1` [Example A-57, 4-((1R,3S)-3-hydroxycyclohexylamino)-2-(tetrahydro-2H-pyran-4-ylamino)pyrimidine-5-carboxamide], the IC50 under setting [4] was less than 0.2 µM.
Regarding `CCOC(=O)N1CCC(Nc2ncc(C(N)=O)c(Nc3ccccc3)n2)CC1` [Example B-48, ethyl 4-(5-carbamoyl-4-(phenylamino)pyrimidin-2-ylamino)piperidine-1-carboxylate], the IC50 under setting [3] is less than 0.2 µM.
Consider `CCC(=O)N1CCC(Nc2ncc(C(N)=O)c(NC3CCCC3)n2)CC1` [Example A-114, 4-(cyclopentylamino)-2-(1-propionylpiperidin-4-ylamino)pyrimidine-5-carboxamide], for which, under setting [4], the IC50 is less than 0.2 µM.
`CCO[C@H]1CC[C@H](Nc2ncc(C(N)=O)c(N[C@H]3C[C@H](C)C3)n2)CC1` [Example 313, 2-((1r,4r)-4-ethoxycyclohexylamino)-4-((1r,3r)-3-methylcyclobutylamino)pyrimidine-5-carboxamide]: the IC50 under setting [2] is less than 0.2 µM.
In the case of `NC(=O)c1cnc(NCCc2ccccn2)nc1Nc1ccccc1` [Example B-63, 4-(phenylamino)-2-(2-(pyridin-2-yl)ethylamino)pyrimidine-5-carboxamide], the IC50 under setting [3] fell in the range of 0.2 to 0.8 µM.
Turning to `CO[C@H]1CC[C@H](Nc2ncc(C#N)c(N[C@@H]3CCCC[C@H](O)C3)n2)CC1` [Example C-27, 4-((1R,3S)-3-hydroxycycloheptylamino)-2-((1r,4R)-4-methoxycyclohexylamino) pyrimidine-5-carbonitrile], the IC50 under setting [1] was less than 0.2 µM.
Turning to `CCO[C@H]1CC[C@H](Nc2ncc(C#N)c(N[C@@H]3CCC[C@H](O)C3)n2)CC1` [Example C-2, 2-((1r,4R)-4-ethoxycyclohexylamino)-4-((1R,3S)-3-hydroxycyclohexylamino) pyrimidine-5-carbonitrile], the IC50 under setting [1] is less than 0.2 µM.
Consider `CCO[C@H]1CC[C@H](Nc2ncc(C(N)=O)c(N[C@H]3C[C@@H](C)C3)n2)CC1` [Example 326, 2-((1r,4r)-4-ethoxycyclohexylamino)-4-((1s,3s)-3-methylcyclobutylamino)pyrimidine-5-carboxamide], for which the IC50 under setting [2] was less than 0.2 µM.
The same measure, in the same setting: the result for `CO[C@H]1CC[C@H](Nc2ncc(C(N)=O)c(NC(C)(C)C3CC3)n2)CC1` [Example 315, 4-(2-cyclopropylpropan-2-ylamino)-2-((1r,4r)-4-methoxycyclohexylamino)pyrimidine-5-carboxamide] reads less than 0.2 µM.
As for `CO[C@H]1CC[C@H](Nc2ncc(C(N)=O)c(N[C@H]3CCNC(=O)C3)n2)CC1` [Example A-25, 2-((1r,4S)-4-methoxycyclohexylamino)-4-((S)-2-oxopiperidin-4-ylamino)pyrimidine-5-carboxamide], under setting [4], the IC50 was less than 0.2 µM.
As for `CC[C@@H](Nc1nc(N[C@H]2CC[C@H](O)CC2)ncc1C(N)=O)C1CC1` [Example 385, 4-((R)-1-cyclopropylpropylamino)-2-((1r,4R)-4-hydroxycyclohexylamino)pyrimidine-5-carboxamide], the IC50 under setting [2] was less than 0.2 µM.
As for `CC(C)(Nc1nc(N[C@H]2CC[C@H](OCC(F)(F)F)CC2)ncc1C(N)=O)C1CC1` [Example 482, 4-(2-cyclopropylpropan-2-ylamino)-2-((1r,4r)-4-(2,2,2-trifluoroethoxy)cyclohexylamino)pyrimidine-5-carboxamide], the IC50 under setting [2] is less than 0.2 µM.
Take `CC(C)Nc1nc(NC2CCC(F)(F)CC2)ncc1C(N)=O` [Example A-3, 2-(4,4-difluorocyclohexylamino)-4-(isopropylamino)pyrimidine-5-carboxamide]: the IC50 under setting [4] is less than 0.2 µM.
`C[C@@H](Nc1nc(N[C@H]2CC[C@H](OC(F)F)CC2)ncc1C(N)=O)C1CC1` [Example 426, 4-((R)-1-cyclopropylethylamino)-2-((1r,4R)-4-(difluoromethoxy)cyclohexylamino)pyrimidine-5-carboxamide]: the IC50 under setting [2] was less than 0.2 µM.
`CO[C@H]1CCC[C@@H](Nc2ncc(C(N)=O)c(N[C@@H]3CCC[C@H](O)C3)n2)CC1` [Example A-163, 4-((1R,3S)-3-hydroxycyclohexylamino)-2-((1R,4S)-4-methoxycycloheptylamino)pyrimidine-5-carboxamide]: the IC50 under setting [4] was less than 0.2 µM.
With `NC(=O)c1cnc(N[C@H]2CC[C@H](OC(F)F)CC2)nc1N[C@@H]1CCC[C@H]1CO` [Example 329, 2-((1r,4R)-4-(difluoromethoxy)cyclohexylamino)-4-((1R,2R)-2-(hydroxymethyl)cyclopentylamino)pyrimidine-5-carboxamide], the IC50 under setting [2] was less than 0.2 µM.
The same measure, in the same setting: in the case of `CC(C)(Nc1nc(N[C@H]2CCC[C@H](O)C2)ncc1C(N)=O)C1CC1` [Example 456, 4-(2-cyclopropylpropan-2-ylamino)-2-((1S,3S)-3-hydroxycyclohexylamino)pyrimidine-5-carboxamide] it was less than 0.2 µM; in that of `CCC1(Nc2nc(N[C@H]3CC[C@H](OC4CC4)CC3)ncc2C(N)=O)CCCC1` [Example 463, 2-((1r,4r)-4-cyclopropoxycyclohexylamino)-4-(1-ethylcyclopentylamino)pyrimidine-5-carboxamide], less than 0.2 µM.
